Experimental data: ChEMBL document CHEMBL1135380, “Synthesis and structure-activity relationship of 2-(aminoalkyl)-2,3,3a,8-tetrahydrodibenzo[c,f]isoxazolo[2,3-a]azepine derivatives: a novel series of 5-HT(2A/2C) receptor antagonists. Part 1” (Bioorg Med Chem Lett, 2002)

Legend:
[1] = target: 5-hydroxytryptamine receptor 1D (Homo sapiens, UniProt P28221); assay: Binding affinity for human cloned 5-hydroxytryptamine 1D receptor
[2] = target: T1, 5-hydroxytryptamine receptor 2C (Rattus norvegicus) (UniProt P08909); assay: In vivo activity in rat mCPP challenge test following p.o. administration.; format: functional, organism-based
T1 sequence (whole entry): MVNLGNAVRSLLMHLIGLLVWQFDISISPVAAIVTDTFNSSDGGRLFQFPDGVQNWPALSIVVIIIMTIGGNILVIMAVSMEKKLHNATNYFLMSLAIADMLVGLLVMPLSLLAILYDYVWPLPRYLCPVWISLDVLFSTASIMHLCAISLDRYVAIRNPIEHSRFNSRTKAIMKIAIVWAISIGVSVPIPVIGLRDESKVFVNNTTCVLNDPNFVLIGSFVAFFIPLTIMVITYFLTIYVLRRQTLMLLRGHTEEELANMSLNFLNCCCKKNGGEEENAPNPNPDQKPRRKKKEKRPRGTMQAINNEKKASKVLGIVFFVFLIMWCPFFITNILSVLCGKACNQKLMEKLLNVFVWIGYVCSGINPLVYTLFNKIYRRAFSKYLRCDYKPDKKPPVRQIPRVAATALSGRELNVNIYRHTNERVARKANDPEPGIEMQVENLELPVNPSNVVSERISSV

[3] = target: 5-hydroxytryptamine receptor 7 (Homo sapiens, UniProt P34969); assay: Binding affinity for human cloned 5-hydroxytryptamine 7 receptor
Chain of 5-hydroxytryptamine receptor 7 (P34969 whole entry): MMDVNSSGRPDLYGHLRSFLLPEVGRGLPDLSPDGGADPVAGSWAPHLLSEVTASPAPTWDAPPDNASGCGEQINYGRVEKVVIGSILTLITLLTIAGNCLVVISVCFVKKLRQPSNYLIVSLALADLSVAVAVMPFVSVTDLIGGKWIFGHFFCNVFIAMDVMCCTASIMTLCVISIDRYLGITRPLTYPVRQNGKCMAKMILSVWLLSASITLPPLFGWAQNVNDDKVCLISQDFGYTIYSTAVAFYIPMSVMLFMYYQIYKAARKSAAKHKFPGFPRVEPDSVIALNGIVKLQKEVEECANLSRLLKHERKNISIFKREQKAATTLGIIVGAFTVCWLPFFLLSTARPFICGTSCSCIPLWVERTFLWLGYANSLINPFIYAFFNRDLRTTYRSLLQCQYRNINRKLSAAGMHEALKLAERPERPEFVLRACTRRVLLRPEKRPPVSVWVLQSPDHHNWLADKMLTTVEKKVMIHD

[4] = target: Serotonin 3 (5-HT3) receptor; assay: Binding affinity for human cloned 5-hydroxytryptamine 3 receptor; format: protein-complex assay
[5] = target: T2, Alpha-1A adrenergic receptor (Homo sapiens, UniProt P35348); assay: Binding affinity for human cloned Alpha-1A adrenergic receptor
T2 sequence (P35348 whole entry): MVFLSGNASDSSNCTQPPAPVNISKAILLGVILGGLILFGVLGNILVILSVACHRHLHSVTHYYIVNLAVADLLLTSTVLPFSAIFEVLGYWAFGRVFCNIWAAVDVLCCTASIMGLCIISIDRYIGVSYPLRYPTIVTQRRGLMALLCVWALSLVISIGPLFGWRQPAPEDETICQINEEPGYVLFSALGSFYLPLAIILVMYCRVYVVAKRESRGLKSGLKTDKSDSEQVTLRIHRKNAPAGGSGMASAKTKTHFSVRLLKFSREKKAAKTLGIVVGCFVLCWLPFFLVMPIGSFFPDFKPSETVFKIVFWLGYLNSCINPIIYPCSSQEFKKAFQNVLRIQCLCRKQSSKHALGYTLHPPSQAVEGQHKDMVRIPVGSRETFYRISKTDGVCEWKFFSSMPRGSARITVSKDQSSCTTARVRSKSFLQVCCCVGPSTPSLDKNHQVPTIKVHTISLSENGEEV

[6] = target: T3, 5-hydroxytryptamine receptor 2C (Homo sapiens, UniProt P28335); assay: Binding affinity for human cloned 5-hydroxytryptamine 2C receptor expressed in CHO cells using [3H]mesulergine as radioligand; format: cell-based
T3 sequence (P28335 whole entry): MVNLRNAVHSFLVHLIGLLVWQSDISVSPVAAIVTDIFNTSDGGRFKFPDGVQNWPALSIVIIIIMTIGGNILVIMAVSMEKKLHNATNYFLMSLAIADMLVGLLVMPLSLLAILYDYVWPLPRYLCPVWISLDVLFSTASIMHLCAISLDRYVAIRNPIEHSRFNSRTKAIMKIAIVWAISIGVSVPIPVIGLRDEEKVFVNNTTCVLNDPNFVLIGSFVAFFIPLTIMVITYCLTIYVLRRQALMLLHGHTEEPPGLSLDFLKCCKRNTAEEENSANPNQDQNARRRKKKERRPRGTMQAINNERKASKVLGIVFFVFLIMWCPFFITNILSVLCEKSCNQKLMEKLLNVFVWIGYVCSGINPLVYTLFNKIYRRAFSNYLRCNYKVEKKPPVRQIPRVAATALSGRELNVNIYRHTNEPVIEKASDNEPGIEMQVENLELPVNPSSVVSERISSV

[7] = target: 5-hydroxytryptamine receptor 2A (Homo sapiens, UniProt P28223); assay: biochemical; format: cell-based, L929
Chain of 5-hydroxytryptamine receptor 2A (P28223 whole entry): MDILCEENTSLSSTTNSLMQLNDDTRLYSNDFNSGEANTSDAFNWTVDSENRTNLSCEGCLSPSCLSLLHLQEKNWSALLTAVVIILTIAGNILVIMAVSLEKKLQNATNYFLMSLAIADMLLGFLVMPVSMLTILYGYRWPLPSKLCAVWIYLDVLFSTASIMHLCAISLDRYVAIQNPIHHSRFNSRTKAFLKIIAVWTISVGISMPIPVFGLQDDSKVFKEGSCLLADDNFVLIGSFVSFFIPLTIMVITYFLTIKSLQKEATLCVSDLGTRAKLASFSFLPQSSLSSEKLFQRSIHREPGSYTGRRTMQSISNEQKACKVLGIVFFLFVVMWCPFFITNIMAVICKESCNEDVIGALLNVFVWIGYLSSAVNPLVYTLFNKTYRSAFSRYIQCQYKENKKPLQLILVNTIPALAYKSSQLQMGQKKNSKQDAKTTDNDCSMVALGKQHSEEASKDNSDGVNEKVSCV
Description: Binding affinity for human cloned 5-hydroxytryptamine 2A receptor expressed in L929 cells using [125I]R91150 as radioligand

[8] = target: D(3) dopamine receptor (Homo sapiens, UniProt P35462); assay: Binding affinity for human cloned Dopamine receptor D3
Chain of D(3) dopamine receptor (P35462 whole entry): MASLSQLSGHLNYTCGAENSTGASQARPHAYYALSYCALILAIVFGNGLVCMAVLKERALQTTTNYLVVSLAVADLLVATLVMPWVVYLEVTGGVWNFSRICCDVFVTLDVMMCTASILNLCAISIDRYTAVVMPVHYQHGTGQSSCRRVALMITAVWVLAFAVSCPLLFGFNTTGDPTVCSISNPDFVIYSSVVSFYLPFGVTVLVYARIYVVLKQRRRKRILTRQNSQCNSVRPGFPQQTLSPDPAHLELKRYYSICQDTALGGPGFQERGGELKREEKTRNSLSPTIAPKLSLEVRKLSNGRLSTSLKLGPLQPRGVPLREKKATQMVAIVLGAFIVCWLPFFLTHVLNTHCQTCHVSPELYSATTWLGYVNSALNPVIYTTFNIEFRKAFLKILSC

[9] = target: T4, D(4) dopamine receptor (Homo sapiens, UniProt P21917); assay: Binding affinity for human cloned Dopamine receptor D4
T4 sequence (P21917 whole entry): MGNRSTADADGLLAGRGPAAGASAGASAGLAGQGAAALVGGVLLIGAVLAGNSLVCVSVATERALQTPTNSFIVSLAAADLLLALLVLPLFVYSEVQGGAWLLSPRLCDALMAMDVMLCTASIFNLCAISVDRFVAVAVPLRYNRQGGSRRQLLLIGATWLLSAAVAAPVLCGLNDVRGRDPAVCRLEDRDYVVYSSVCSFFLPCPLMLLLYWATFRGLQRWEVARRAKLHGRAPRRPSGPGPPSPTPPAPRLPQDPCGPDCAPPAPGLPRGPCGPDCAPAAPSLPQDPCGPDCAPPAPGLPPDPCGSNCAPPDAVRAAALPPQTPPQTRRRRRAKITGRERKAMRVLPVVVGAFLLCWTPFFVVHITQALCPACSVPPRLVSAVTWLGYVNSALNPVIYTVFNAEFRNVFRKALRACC

[10] = tested on: Rattus norvegicus; assay: In vivo activity in mCPP challenge test were performed in male Wistar rats by subcutaneous administration; format: functional; conditions: Rattus norvegicus, sc; read-out: ED50
[11] = target: T5, Alpha-2C adrenergic receptor (Homo sapiens, UniProt P18825); assay: Binding affinity for human cloned Alpha-2C adrenergic receptor
T5 sequence (P18825 whole entry): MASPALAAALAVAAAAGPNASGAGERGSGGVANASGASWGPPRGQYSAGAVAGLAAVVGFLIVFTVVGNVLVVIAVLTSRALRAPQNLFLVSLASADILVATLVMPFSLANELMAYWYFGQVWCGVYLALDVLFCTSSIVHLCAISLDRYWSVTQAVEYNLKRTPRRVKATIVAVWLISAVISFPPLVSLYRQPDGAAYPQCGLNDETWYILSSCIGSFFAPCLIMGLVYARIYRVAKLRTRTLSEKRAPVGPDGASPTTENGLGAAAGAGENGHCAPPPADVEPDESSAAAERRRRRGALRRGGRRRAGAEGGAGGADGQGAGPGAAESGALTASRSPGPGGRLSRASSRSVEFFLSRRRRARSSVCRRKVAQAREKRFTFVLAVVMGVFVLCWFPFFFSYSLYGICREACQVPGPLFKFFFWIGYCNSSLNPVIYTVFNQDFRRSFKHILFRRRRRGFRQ

[12] = target: Histamine H1 receptor (Homo sapiens, UniProt P35367); assay: Binding affinity for human cloned Histamine H1 receptor expressed in CHO cells using [3H]pyrilamine as radioligand; format: cell-based
Chain of Histamine H1 receptor (P35367 whole entry): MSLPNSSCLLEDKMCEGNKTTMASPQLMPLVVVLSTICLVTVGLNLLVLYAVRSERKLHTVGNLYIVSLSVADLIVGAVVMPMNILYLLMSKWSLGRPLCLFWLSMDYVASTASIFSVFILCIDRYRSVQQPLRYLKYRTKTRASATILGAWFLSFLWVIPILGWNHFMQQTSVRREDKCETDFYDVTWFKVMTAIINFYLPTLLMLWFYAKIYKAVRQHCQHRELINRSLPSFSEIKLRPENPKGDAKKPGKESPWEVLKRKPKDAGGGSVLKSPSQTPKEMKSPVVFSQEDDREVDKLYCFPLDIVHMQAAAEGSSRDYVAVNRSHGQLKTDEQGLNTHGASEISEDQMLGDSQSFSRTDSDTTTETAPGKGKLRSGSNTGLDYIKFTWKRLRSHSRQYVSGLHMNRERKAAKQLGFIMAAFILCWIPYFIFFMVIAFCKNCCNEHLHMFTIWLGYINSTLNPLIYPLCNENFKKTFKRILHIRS

[13] = target: D(2) dopamine receptor (Homo sapiens, UniProt P14416); assay: Binding affinity for human cloned Dopamine receptor D2L
Chain of D(2) dopamine receptor (P14416 whole entry): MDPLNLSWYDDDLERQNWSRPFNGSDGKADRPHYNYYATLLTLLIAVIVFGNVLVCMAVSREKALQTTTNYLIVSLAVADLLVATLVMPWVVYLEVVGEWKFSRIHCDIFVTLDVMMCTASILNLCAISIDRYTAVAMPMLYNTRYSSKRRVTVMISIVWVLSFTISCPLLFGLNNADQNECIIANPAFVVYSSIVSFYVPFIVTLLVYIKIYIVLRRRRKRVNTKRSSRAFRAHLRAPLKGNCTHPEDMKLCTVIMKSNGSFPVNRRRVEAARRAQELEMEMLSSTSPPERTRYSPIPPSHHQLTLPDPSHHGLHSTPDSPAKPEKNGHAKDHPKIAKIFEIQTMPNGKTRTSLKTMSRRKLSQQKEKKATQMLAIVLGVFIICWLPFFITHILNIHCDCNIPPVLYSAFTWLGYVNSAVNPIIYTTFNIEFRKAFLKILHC

[14] = target: T6, Alpha-2A adrenergic receptor (Homo sapiens, UniProt P08913); assay: Binding affinity for human cloned Alpha-2A adrenergic receptor
T6 sequence (P08913 whole entry): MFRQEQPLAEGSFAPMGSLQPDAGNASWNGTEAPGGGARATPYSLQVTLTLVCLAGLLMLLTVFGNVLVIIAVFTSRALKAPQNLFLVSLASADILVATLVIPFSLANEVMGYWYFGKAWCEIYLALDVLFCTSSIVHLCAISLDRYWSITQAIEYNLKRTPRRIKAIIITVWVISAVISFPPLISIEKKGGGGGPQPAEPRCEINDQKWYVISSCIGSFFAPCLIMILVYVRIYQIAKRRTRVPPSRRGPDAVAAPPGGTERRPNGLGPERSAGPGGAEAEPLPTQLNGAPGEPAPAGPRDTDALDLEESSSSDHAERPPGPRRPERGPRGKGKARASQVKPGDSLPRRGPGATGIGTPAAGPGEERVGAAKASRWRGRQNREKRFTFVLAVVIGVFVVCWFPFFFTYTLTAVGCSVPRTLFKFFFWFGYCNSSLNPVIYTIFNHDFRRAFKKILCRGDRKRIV

[15] = target: T7, 5-hydroxytryptamine receptor 1A (Homo sapiens, UniProt P08908); assay: Binding affinity for human cloned 5-hydroxytryptamine 1A receptor
T7 sequence (P08908 whole entry): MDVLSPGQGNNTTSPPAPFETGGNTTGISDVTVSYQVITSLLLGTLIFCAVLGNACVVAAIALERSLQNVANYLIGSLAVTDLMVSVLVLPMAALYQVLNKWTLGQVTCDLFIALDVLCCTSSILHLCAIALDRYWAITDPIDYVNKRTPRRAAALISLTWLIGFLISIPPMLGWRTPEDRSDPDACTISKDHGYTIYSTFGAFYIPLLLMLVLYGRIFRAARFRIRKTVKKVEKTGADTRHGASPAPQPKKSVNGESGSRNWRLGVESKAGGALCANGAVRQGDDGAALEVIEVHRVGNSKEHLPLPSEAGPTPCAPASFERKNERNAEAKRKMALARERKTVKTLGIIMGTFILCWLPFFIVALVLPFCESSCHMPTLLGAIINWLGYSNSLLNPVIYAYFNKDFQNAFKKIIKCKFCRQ

Chain of 5-hydroxytryptamine receptor 1D (P28221 whole entry): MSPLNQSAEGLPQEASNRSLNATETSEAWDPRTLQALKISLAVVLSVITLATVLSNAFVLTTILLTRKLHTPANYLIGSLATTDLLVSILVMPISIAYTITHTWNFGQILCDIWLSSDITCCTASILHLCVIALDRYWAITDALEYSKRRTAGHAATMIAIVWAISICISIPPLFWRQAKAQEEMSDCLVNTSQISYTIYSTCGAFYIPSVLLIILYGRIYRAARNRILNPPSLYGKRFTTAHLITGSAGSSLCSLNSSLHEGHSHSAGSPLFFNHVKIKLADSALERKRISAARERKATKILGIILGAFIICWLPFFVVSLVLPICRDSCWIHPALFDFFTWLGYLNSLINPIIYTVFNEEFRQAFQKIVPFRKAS

IC50 [1]: > 1000 nM | ED50 [2]: > 2.5 mg/kg | IC50 [3]: 18.6 nM | pIC50 [4]: < 6 | IC50 [5]: 191 nM | IC50 [6]: 7.08 nM | IC50 [7]: 13.2 nM | IC50 [8]: 339 nM | IC50 [9]: 302 nM | IC50 [11]: > 1000 nM | IC50 [12]: 10.7 nM | IC50 [13]: 1700 nM | IC50 [14]: 437 nM | IC50 [15]: > 1000 nM
SMILES: CNCC1CC2c3ccccc3Cc3ccccc3N2O1 (stereo not given)
ED50 [10]: 0.16 mg/kg
